Calls of active or inactive are those of the source. No cut-off for these calls is given here.
Tests used:
Plasmodium falciparum [1] = assay: Antiplasmodial activity against CQ-resistant Plasmodium falciparum W2 assessed as inhibition of parasite growth measured after 48 hrs by SYBR Green 1 dye based fluorescence assay; type: functional, organism-based; conditions: W2, 48 h
[2] = Apparent permeability across apical to basolateral side in human Caco-2/TC7 cells at 20 uM incubated for 2 hrs by LC-MS/MS analysis; type: ADME, cell-based, Caco2/TC7
[3] = Apparent permeability across apical to basolateral side in human Caco-2/TC7 cells assessed as drug recovery at 20 uM incubated for 2 hrs by LC-MS/MS analysis; type: ADME, cell-based, Caco2/TC7; conditions: read-out: Drug recovery
[4] = Metabolic stability in mouse liver microsomes assessed as intrinsic clearance at 0.5 uM incubated for 30 mins by LC-MS/MS analysis; type: ADME, Microsome; conditions: read-out: CLH
[5] = Metabolic stability in rat liver microsomes assessed as intrinsic clearance at 0.5 uM incubated for 30 mins by LC-MS/MS analysis; type: ADME, Microsome; conditions: read-out: CLH
[6] = Metabolic stability in human liver microsomes assessed as intrinsic clearance at 0.5 uM incubated for 30 mins by LC-MS/MS analysis; type: ADME, Microsome; conditions: read-out: CLH
[7] = Metabolic stability in human hepatocytes assessed as intrinsic clearance incubated up to 24 hrs measured per 10^6 cells by LC-MS/MS analysis; type: ADME, cell-based, Hepatocyte
Plasmodium falciparum [8] = assay: Antiplasmodial activity against CQ-susceptible Plasmodium falciparum 3D7 infected in human erythrocytes assessed as inhibition of parasite growth measured after 72 hrs by HRP2-ELISA; type: functional, organism-based; conditions: 3D7, Erythrocyte
Plasmodium falciparum [9] = assay: Antiplasmodial activity CQ-resistant Plasmodium falciparum W2 infected in human erythrocytes assessed as inhibition of parasite growth measured after 72 hrs by HRP2-ELISA; type: functional, organism-based; conditions: W2, Erythrocyte
Plasmodium berghei [10] = assay: Antimalarial activity against Plasmodium berghei ANKA infected in BALB/c mouse assessed as increase in animal survival rate at 9 mg/kg, ip administered daily for 5 days and measured for 30 days; type: functional, organism-based; conditions: time 30.0 day
[11] = target: Voltage-gated inwardly rectifying potassium channel KCNH2 (Homo sapiens, UniProt Q12809); assay: Inhibition of hERG channel expressed in CHO cells at holding potential of -80 mV by whole cell patch clamp method; type: toxicity, cell-based
Plasmodium falciparum [12] = assay: Antiplasmodial activity against CQ-susceptible Plasmodium falciparum 3D7 assessed as inhibition of parasite growth measured after 48 hrs by SYBR Green 1 dye based fluorescence assay; type: functional, organism-based; conditions: 3D7, 48 h
Plasmodium falciparum [13] = assay: Selectivity index, ratio of IC50 for antiplasmodial activity against CQ-susceptible Plasmodium falciparum 3D7 to IC50 for antiplasmodial activity against CQ-resistant Plasmodium falciparum W2 by SYBR Green 1 dye based fluorescence assay; type: functional
[14] = Cytotoxicity against human HepG2 cells assessed as reduction in cell viability incubated for 72 hrs by MTT assay; type: toxicity, cell-based
[15] = Cytotoxicity against Chinese hamster CHO cells assessed as reduction in cell viability incubated for 24 hrs by MTT assay; type: toxicity, cell-based, Cricetulus griseus
[16] = Cytotoxicity against human THP-1 cells assessed as reduction in cell viability incubated for 72 hrs by MTT assay; type: toxicity, cell-based
[17] = Cytotoxicity against human HFF cells assessed as reduction in cell viability incubated for 72 hrs by MTT assay; type: toxicity, cell-based
[18] = Selectivity index, ratio of IC50 for cytotoxicity against human HepG2 cells to IC50 for antiplasmodial activity against Plasmodium falciparum 3D7 infected in human erythrocytes by HRP2-ELISA; type: toxicity, cell-based; conditions: read-out: Ratio IC50
[19] = Selectivity index, ratio of IC50 for cytotoxicity against chinese hamster CHO cells to IC50 for antiplasmodial activity against Plasmodium falciparum 3D7 infected in human erythrocytes by HRP2-ELISA; type: toxicity, cell-based; conditions: read-out: Ratio IC50
[20] = Selectivity index, ratio of IC50 for cytotoxicity against human THP-1 cells to IC50 for antiplasmodial activity against Plasmodium falciparum 3D7 infected in human erythrocytes by HRP2-ELISA; type: toxicity, cell-based; conditions: read-out: Ratio IC50
[21] = Selectivity index, ratio of IC50 for human HFF cells to IC50 for antiplasmodial activity against Plasmodium falciparum 3D7 infected in human erythrocytes by HRP2-ELISA; type: toxicity, cell-based; conditions: read-out: Ratio IC50
Cytochrome P450 3A4 [22] = target: T1, Cytochrome P450 3A4 (Homo sapiens, UniProt P08684); assay: Inhibition of CYP3A4 in human liver microsomes assessed as reduction in 1'-hydroxy midazolam formation using midazolam as substrate preincubated for 20 mins in presence of NADPH followed by incubation with substrate for 10 mins by LC-MS/MS analysis; type: ADME, Microsome
Cytochrome P450 3A4 [23] = target: T1, Cytochrome P450 3A4; assay: Inhibition of CYP3A4 in human liver microsomes assessed as reduction in 6-beta-hydroxy-testosterone formation using testosterone as substrate preincubated for 20 mins in presence of NADPH followed by incubation with substrate for 10 mins by LC-MS/MS analysis; type: ADME, Microsome
Plasmodium falciparum [24] = assay: Selectivity index, ratio of IC50 for antiplasmodial activity against CQ-susceptible Plasmodium falciparum 3D7 to IC50 for antiplasmodial activity CQ-resistant Plasmodium falciparum W2 by HRP2-ELISA; type: functional
[25] = Genotoxicity in CHO-K1 cells at 0.001 to 1 mM incubated for 3 hrs in presence of S9 mix by in vitro micronucleus test; type: toxicity, cell-based, Cricetulus griseus; conditions: chinese hamster, cho-k1, 3 h, 1000 µM, dose 0.001-1 mM
[26] = Genotoxicity in CHO-K1 cells at 0.001 to 1 mM incubated for 24 hrs without metabolic activation by in vitro micronucleus test; type: toxicity, cell-based, Cricetulus griseus; conditions: chinese hamster, cho-k1, 24 h, 1000 µM, dose 0.001-1 mM
[27] = Drug metabolism in mouse liver microsomes assessed as (S)-2-(((S)-2-(2,8-Bis(trifluoromethyl)quinolin-4-yl)-2-hydroxyethyl)amino)-3-phenylpropan-1-ol metabolite formation measured after 5 mins by LC-MS analysis; type: ADME, Microsome
[28] = Drug metabolism in mouse liver microsomes assessed as (1S)-2-amino-1-[2,8-bis(trifluoromethyl)quinolin-4-yl]ethan-1-ol metabolite formation measured after 5 mins by LC-MS analysis; type: ADME, Microsome
[29] = Drug metabolism in rat liver microsomes assessed as oxidative metabolite formation measured after 5 mins by LC-MS analysis; type: ADME, Microsome
[30] = Drug metabolism in human liver microsomes assessed as oxidative metabolite formation measured after 5 mins by LC-MS analysis; type: ADME, Microsome
Cytochrome P450 3A4 [31] = target: T1, Cytochrome P450 3A4; assay: Inhibition of CYP3A4 in human liver microsomes assessed as reduction in 1'-hydroxy midazolam formation using midazolam as substrate preincubated for 20 mins in absence of NADPH followed by incubation with substrate for 10 mins by LC-MS/MS analysis; type: ADME, Microsome
Cytochrome P450 3A4 [32] = target: T1, Cytochrome P450 3A4; assay: Inhibition of CYP3A4 in human liver microsomes assessed as reduction in 6-beta-hydroxy-testosterone formation using testosterone as substrate preincubated for 20 mins in absence of NADPH followed by incubation with substrate for 10 mins by LC-MS/MS analysis; type: ADME, Microsome
[33] = Selectivity index, ratio of IC50 for cytotoxicity against human HepG2 cells to IC50 for antiplasmodial activity against CQ-susceptible Plasmodium falciparum 3D7 by SYBR Green 1 dye based fluorescence assay; type: toxicity, cell-based; conditions: HepG2 cells versus CQ-susceptible Plasmodium falciparum 3D7, read-out: Ratio IC50
[34] = Selectivity index, ratio of IC50 for cytotoxicity against chinese hamster CHO cells to IC50 for antiplasmodial activity against CQ-susceptible Plasmodium falciparum 3D7 by SYBR Green 1 dye based fluorescence assay; type: toxicity, cell-based; conditions: CHO cells versus CQ-susceptible Plasmodium falciparum 3D7, read-out: Ratio IC50
[35] = Selectivity index, ratio of IC50 for cytotoxicity against human THP-1 cells to IC50 for antiplasmodial activity against CQ-susceptible Plasmodium falciparum 3D7 by SYBR Green 1 dye based fluorescence assay; type: toxicity, cell-based; conditions: THP-1 cells versus CQ-susceptible Plasmodium falciparum 3D7, read-out: Ratio IC50
[36] = Selectivity index, ratio of IC50 for cytotoxicity against human HFF cells to IC50 for antiplasmodial activity against CQ-susceptible Plasmodium falciparum 3D7 by SYBR Green 1 dye based fluorescence assay; type: toxicity, cell-based; conditions: HFF cells versus CQ-susceptible Plasmodium falciparum 3D7, read-out: Ratio IC50
Plasmodium berghei [37] = assay: Antimalarial activity against Plasmodium berghei ANKA infected in BALB/c mouse assessed as time required for clearance of blood parasites at 9 mg/kg, ip administered daily for 5 days; type: functional; conditions: time 5 day

T1 sequence (P08684 whole entry): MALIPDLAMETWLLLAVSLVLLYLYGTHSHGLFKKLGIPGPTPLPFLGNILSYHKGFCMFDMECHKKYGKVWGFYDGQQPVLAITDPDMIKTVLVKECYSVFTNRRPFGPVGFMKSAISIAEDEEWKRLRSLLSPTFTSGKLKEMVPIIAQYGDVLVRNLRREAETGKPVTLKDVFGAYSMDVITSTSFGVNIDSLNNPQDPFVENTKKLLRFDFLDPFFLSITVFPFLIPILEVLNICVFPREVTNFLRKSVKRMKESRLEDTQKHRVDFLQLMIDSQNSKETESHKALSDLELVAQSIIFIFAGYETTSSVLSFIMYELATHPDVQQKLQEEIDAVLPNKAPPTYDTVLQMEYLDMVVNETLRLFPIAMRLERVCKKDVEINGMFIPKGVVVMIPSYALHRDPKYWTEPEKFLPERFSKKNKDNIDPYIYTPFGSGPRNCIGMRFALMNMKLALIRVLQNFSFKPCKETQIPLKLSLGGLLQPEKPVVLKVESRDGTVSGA
Voltage-gated inwardly rectifying potassium channel KCNH2, sequence (Q12809 whole entry): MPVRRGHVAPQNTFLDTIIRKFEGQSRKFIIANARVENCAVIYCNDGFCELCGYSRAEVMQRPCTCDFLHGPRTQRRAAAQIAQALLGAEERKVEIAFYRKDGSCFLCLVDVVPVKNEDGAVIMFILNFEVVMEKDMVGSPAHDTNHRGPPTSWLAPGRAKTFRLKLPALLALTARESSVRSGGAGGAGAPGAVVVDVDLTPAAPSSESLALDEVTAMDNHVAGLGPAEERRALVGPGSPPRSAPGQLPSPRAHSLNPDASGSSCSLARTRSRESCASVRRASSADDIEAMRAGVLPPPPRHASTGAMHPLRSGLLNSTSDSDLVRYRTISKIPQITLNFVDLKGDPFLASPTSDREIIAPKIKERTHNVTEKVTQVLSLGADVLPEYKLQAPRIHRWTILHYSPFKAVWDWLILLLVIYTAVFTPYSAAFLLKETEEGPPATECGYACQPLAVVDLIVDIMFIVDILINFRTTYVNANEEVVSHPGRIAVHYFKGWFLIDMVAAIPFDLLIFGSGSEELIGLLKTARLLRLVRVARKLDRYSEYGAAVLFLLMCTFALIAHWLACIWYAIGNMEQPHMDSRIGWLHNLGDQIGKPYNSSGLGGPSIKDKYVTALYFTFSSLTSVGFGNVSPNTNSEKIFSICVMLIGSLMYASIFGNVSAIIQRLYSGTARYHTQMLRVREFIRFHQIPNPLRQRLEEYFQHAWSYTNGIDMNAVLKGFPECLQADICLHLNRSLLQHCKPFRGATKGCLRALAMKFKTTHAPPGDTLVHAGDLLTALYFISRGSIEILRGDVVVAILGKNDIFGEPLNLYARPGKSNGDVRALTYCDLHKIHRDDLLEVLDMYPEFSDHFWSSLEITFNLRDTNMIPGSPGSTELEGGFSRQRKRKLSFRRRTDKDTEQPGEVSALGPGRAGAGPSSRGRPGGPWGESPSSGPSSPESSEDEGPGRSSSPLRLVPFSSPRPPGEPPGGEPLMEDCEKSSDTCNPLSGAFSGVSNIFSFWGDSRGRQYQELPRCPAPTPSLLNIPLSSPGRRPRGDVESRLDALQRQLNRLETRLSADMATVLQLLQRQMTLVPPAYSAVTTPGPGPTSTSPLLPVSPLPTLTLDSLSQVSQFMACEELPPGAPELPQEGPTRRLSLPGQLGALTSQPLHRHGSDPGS

O[C@@H](c1cc(C(F)(F)F)nc2c(C(F)(F)F)cccc12)[C@H]1CCCCN1 [(S,R)-MEFLOQUINE]
IC50 (Plasmodium falciparum [1]): 0.0318 µM
Papp A→B at 2 h, 20 µM [2]: 4.5 ×10⁻⁶ cm/s
recovery at 2 h, 20 µM [3]: 91%
microsomal CLint at 0.5 µM [4]: < 20 µL/min/mg
microsomal CLint at 0.5 µM [5]: < 20 µL/min/mg
microsomal CLint at 0.5 µM [6]: < 20 µL/min/mg
CLH [7]: 0.002 mL/h
IC50 (Plasmodium falciparum [8]): 0.0541 µM
IC50 (Plasmodium falciparum [9]): 0.0283 µM

O[C@@H](c1cc(C(F)(F)F)nc2c(C(F)(F)F)cccc12)[C@H]1CCCCN1 (relative stereo)
Activity (Plasmodium berghei [10]): Active

CCCCCNC[C@@H](O)c1cc(C(F)(F)F)nc2c(C(F)(F)F)cccc12
Papp A→B at 2 h, 20 µM [2]: 11.4 ×10⁻⁶ cm/s
recovery at 2 h, 20 µM [3]: 99%
IC50 [11]: 8.8 µM

CCCCCNC[C@H](O)c1cc(C(F)(F)F)nc2c(C(F)(F)F)cccc12
Papp A→B at 2 h, 20 µM [2]: 3.7 ×10⁻⁶ cm/s
recovery at 2 h, 20 µM [3]: 86%
IC50 [11]: 5.6 µM

COC[C@H](Cc1ccccc1)NC[C@@H](O)c1cc(C(F)(F)F)nc2c(C(F)(F)F)cccc12
IC50 (Plasmodium falciparum [12]): 0.0151 µM
IC50 (Plasmodium falciparum [1]): 0.0132 µM
Ratio IC50 (Plasmodium falciparum [13]): 1.1
IC50 at 72 h [14]: 11.6 µM
IC50 at 24 h [15]: 47.3 µM
IC50 at 72 h [16]: 16.2 µM
IC50 at 72 h [17]: 44.2 µM
selectivity ratio [18]: 778
selectivity ratio [19]: 3170
selectivity ratio [20]: 1090
selectivity ratio [21]: 2970
Papp A→B at 2 h, 20 µM [2]: 6.1 ×10⁻⁶ cm/s
recovery at 2 h, 20 µM [3]: 81%
IC50 [11]: 17.3 µM
microsomal CLint at 0.5 µM [4]: > 1000 µL/min/mg
microsomal CLint at 0.5 µM [5]: > 1000 µL/min/mg
microsomal CLint at 0.5 µM [6]: > 1000 µL/min/mg
IC50 (Cytochrome P450 3A4 [22]): 5.9 µM
IC50 (Cytochrome P450 3A4 [23]): 2.3 µM
IC50 (Plasmodium falciparum [8]): 0.0149 µM
IC50 (Plasmodium falciparum [9]): 0.011 µM
Ratio IC50 (Plasmodium falciparum [24]): 1.35
Activity [25]: Non-Toxic
Activity [26]: Non-Toxic
Drug metabolism [27]: Metabolite_Detected
Drug metabolism [28]: Metabolite_Detected
Drug metabolism [29]: Metabolite_Detected
Drug metabolism [30]: Metabolite_Detected
IC50 (Cytochrome P450 3A4 [31]): 2.8 µM
IC50 (Cytochrome P450 3A4 [32]): 2.9 µM

O[C@H](c1cc(C(F)(F)F)nc2c(C(F)(F)F)cccc12)[C@@H]1CCCCN1 [(R,S)-MEFLOQUINE]
Papp A→B at 2 h, 20 µM [2]: 4.5 ×10⁻⁶ cm/s
recovery at 2 h, 20 µM [3]: 85%
microsomal CLint at 0.5 µM [4]: < 20 µL/min/mg
microsomal CLint at 0.5 µM [5]: < 20 µL/min/mg
microsomal CLint at 0.5 µM [6]: < 20 µL/min/mg
CLH [7]: 0.004 mL/h

CCCCCCCNC[C@@H](O)c1cc(C(F)(F)F)nc2c(C(F)(F)F)cccc12
Papp A→B at 2 h, 20 µM [2]: 5.3 ×10⁻⁶ cm/s
recovery at 2 h, 20 µM [3]: 65%
IC50 [11]: 7 µM

CCCCCCCNC[C@H](O)c1cc(C(F)(F)F)nc2c(C(F)(F)F)cccc12
Papp A→B at 2 h, 20 µM [2]: 0.5 ×10⁻⁶ cm/s
recovery at 2 h, 20 µM [3]: 90%
IC50 [11]: > 30 µM

O[C@@H](CNCCN1CCN(C(c2ccccc2)c2ccccc2)CC1)c1cc(C(F)(F)F)nc2c(C(F)(F)F)cccc12
IC50 (Plasmodium falciparum [12]): 0.0451 µM
IC50 (Plasmodium falciparum [1]): 0.0765 µM
Ratio IC50 (Plasmodium falciparum [13]): 0.6
IC50 at 72 h [14]: 3.3 µM
IC50 at 24 h [15]: 10.2 µM
IC50 at 72 h [16]: 7.6 µM
IC50 at 72 h [17]: 13.9 µM
selectivity ratio [33]: 73
selectivity ratio [34]: 226
selectivity ratio [35]: 168
selectivity ratio [36]: 308

Cl.O[C@@H](c1cc(C(F)(F)F)nc2c(C(F)(F)F)cccc12)[C@H]1CCCCN1 (relative stereo)
Time (Plasmodium berghei [37]): <100 h

Source: ChEMBL document CHEMBL5154649, “Design, synthesis, and characterization of novel aminoalcohol quinolines with strong in vitro antimalarial activity” (Eur J Med Chem, 2022)
